Legend:
BCL-2 = biological target: T1, BCL-2 (Homo sapiens, UniProt P10415); test: HTRF BCL-2/BAK assay (Cisbio); type: binding; conditions: recombinant human Tag1-BCL-2 2 nM, Tag2-BAK 10 nM
T1 construct: purchased Cisbio 63ADK000CB01PEG
Experimental: (§1) Then the pre-mixed anti-Tag1-Eu^3+ and anti-tag2-XL665 were added to the plate and further incubated at room temperature for another 2 hours. The signals ([…]) were read on Envision 2104 instrument. The IC50 for each compound was derived from fitting the signal of 665/615 nM to the increasing compound concentration.
(§2) Using the above assays, the following compounds were tested.

BCL-XL = biological target: T2, BCL-XL (Homo sapiens, UniProt Q07817); test: HTRF BCL-XL/BAK assay (Cisbio); type: binding; conditions: recombinant human Tag1-BCL-XL 2 nM, Tag2-BAK 5 nM
T2 construct: purchased Cisbio 63ADK000CB04PEG
T2 sequence (Q07817 whole entry): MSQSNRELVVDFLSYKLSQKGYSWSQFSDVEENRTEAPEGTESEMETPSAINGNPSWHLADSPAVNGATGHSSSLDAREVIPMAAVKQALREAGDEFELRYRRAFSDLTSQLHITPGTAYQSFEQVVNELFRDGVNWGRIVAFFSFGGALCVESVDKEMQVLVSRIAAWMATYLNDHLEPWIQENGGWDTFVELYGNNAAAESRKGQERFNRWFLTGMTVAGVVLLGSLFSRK
Experimental: as §1, §2

DOHH2 cells = test: CellTiter-Glo cell proliferation assay, DOHH2 cells; type: cell-based; conditions: Homo sapiens, DOHH-2, 72 hours
In short: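 GI50 derived from CellTiter-Glo luminescent viability signal. Cells grown in DMEM with 10% FBS received a compound dilution series for 72 h (37 °C, 5% CO2).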

T1 sequence (P10415 whole entry): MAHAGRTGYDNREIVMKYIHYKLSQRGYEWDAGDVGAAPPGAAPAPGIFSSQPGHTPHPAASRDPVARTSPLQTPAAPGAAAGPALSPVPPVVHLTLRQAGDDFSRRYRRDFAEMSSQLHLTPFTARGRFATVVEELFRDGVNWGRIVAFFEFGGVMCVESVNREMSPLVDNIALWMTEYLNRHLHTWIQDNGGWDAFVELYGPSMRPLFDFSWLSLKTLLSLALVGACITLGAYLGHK

Row | IC50 (BCL-2) | IC50 (BCL-XL) | Structure (SMILES) | GI50 (DOHH2 cells)
1 | < 20 nM | < 20 nM | O=C(NS(=O)(=O)c1ccc(NCC2CC3(CCN(CCO)CC3)C2)c([N+](=O)[O-])c1)c1ccc(N2CCN([C@@H]3CCCCc4c(Cl)cccc43)CC2)cc1Oc1cnc2[nH]ccc2c1 [Compound 121, (R)-2-((1H-pyrrolo[2,3-b]pyridin-5-yl)oxy)-4-(4-(1-chloro-6,7,8,9-tetrahydro-5H-benzo[7]annulen-5-yl)piperazin-1-yl)-N-((4-(((7-(2-hydroxyethyl)-7-azaspiro[3.5]nonan-2-yl)methyl)amino)-3-nitrophenyl)sulfonyl)benzamide] | < 50 nM
2 | 20 to 200 nM | > 2000 nM | O=C(NS(=O)(=O)c1ccc(NCC2CCOCC2)c([N+](=O)[O-])c1)c1ccc(N2CCN([C@@H]3CCCCc4c(O)cccc43)CC2)cc1Oc1cnc2[nH]ccc2c1 [Compound 40, (R)-2-((1H-pyrrolo[2,3-b]pyridin-5-yl)oxy)-4-(4-(1-hydroxy-6,7,8,9-tetrahydro-5H-benzo[7]annulen-5-yl)piperazin-1-yl)-N-((3-nitro-4-(((tetrahydro-2H-pyran-4-yl)methyl)amino)phenyl)sulfonyl)benzamide] | 500 to 5000 nM
3 | < 20 nM | 20 to 200 nM | O=C(NS(=O)(=O)c1ccc(NCC2CCC3(CC2)COC3)c([N+](=O)[O-])c1)c1ccc(N2CCN([C@@H]3CCCCc4c(Cl)cccc43)CC2)cc1Oc1cnc2[nH]ccc2c1 [Compound 71, (R)-2-((1H-pyrrolo[2,3-b]pyridin-5-yl)oxy)-N-((4-(((2-oxaspiro[3.5]nonan-7-yl)methyl)amino)-3-nitrophenyl)sulfonyl)-4-(4-(1-chloro-6,7,8,9-tetrahydro-5H-benzo[7]annulen-5-yl)piperazin-1-yl)benzamide] | < 50 nM
4 | < 20 nM | 20 to 200 nM | O=C(NS(=O)(=O)c1ccc(NCCN2CCN(C3COC3)CC2)c([N+](=O)[O-])c1)c1ccc(N2CCN([C@@H]3CCCCc4c(Cl)cccc43)CC2)cc1Oc1cnc2[nH]ccc2c1 [Compound 84, (R)-2-((1H-pyrrolo[2,3-b]pyridin-5-yl)oxy)-4-(4-(1-chloro-6,7,8,9-tetrahydro-5H-benzo[7]annulen-5-yl)piperazin-1-yl)-N-((3-nitro-4-((2-(4-(oxetan-3-yl)piperazin-1-yl)ethyl)amino)phenyl)sulfonyl)benzamide] | < 50 nM
5 | < 20 nM | 200 to 2000 nM | O=C(NS(=O)(=O)c1ccc(NCC2CCC3(CC2)COC3)c([N+](=O)[O-])c1)c1ccc(N2CCN(C3CCCCc4c(Cl)cccc43)CC2)cc1Oc1cnc2[nH]ccc2c1 (stereo not drawn) [Compound 38, 2-((1H-pyrrolo[2,3-b]pyridin-5-yl)oxy)-N-((4-(((2-oxaspiro[3.5]nonan-7-yl)methyl)amino)-3-nitrophenyl)sulfonyl)-4-(4-(1-chloro-6,7,8,9-tetrahydro-5H-benzo[7]annulen-5-yl)piperazin-1-yl)benzamide] | < 50 nM
6 | < 20 nM | > 2000 nM | O=C(NS(=O)(=O)c1ccc(NCC2CCOCC2)c([N+](=O)[O-])c1)c1ccc(N2CCN(C3CCCCc4ccc(Br)cc43)CC2)cc1Oc1cnc2[nH]ccc2c1 (stereo not drawn) [Compound 21, 2-((1H-pyrrolo[2,3-b]pyridin-5-yl)oxy)-4-(4-(3-bromo-6,7,8,9-tetrahydro-5H-benzo[7]annulen-5-yl)piperazin-1-yl)-N-((3-nitro-4-(((tetrahydro-2H-pyran-4-yl)methyl)amino)phenyl)sulfonyl)benzamide] | 50 to 500 nM
7 | < 20 nM | 20 to 200 nM | O=C(NS(=O)(=O)c1ccc(NCC2CCOCC2)c([N+](=O)[O-])c1)c1ccc(N2CCN(C3CCCCc4c(Br)cccc43)CC2)cc1Oc1cnc2[nH]ccc2c1 (stereo not drawn) [Compound 18, 2-((1H-pyrrolo[2,3-b]pyridin-5-yl)oxy)-4-(4-(1-bromo-6,7,8,9-tetrahydro-5H-benzo[7]annulen-5-yl)piperazin-1-yl)-N-((3-nitro-4-(((tetrahydro-2H-pyran-4-yl)methyl)amino)phenyl)sulfonyl)benzamide] | < 50 nM
8 | < 20 nM | 20 to 200 nM | O=C(NS(=O)(=O)c1ccc(NCC2CCOCC2)c([N+](=O)[O-])c1)c1ccc(N2CCN([C@@H]3CCCCc4c(Br)cccc43)CC2)cc1Oc1cnc2[nH]ccc2c1 [Compound 66, (R)-2-((1H-pyrrolo[2,3-b]pyridin-5-yl)oxy)-4-(4-(1-bromo-6,7,8,9-tetrahydro-5H-benzo[7]annulen-5-yl)piperazin-1-yl)-N-((3-nitro-4-(((tetrahydro-2H-pyran-4-yl)methyl)amino)phenyl)sulfonyl)benzamide] | < 50 nM
9 | 20 to 200 nM | 200 to 2000 nM | O=C(NS(=O)(=O)c1ccc(NCC2CCOCC2)c([N+](=O)[O-])c1)c1ccc(N2CCN(C3CCCCc4cc(Cl)ccc43)CC2)cc1Oc1cnc2[nH]ccc2c1 (stereo not drawn) [Compound 25, 2-((1H-pyrrolo[2,3-b]pyridin-5-yl)oxy)-4-(4-(2-chloro-6,7,8,9-tetrahydro-5H-benzo[7]annulen-5-yl)piperazin-1-yl)-N-((3-nitro-4-(((tetrahydro-2H-pyran-4-yl)methyl)amino)phenyl)sulfonyl)benzamide] | 50 to 500 nM
10 | 20 to 200 nM | 200 to 2000 nM | O=C(NS(=O)(=O)c1ccc(NC[C@@H]2CO[C@@H]3OCC[C@H]23)c([N+](=O)[O-])c1)c1ccc(N2CCN([C@@H]3CCCCc4c(Br)cc(F)cc43)CC2)cc1Oc1cnc2[nH]ccc2c1 (relative stereo) [Compound 81, 2-((1H-pyrrolo[2,3-b]pyridin-5-yl)oxy)-4-(4-((R)-1-bromo-3-fluoro-6,7,8,9-tetrahydro-5H-benzo[7]annulen-5-yl)piperazin-1-yl)-N-((4-((((3R,3aR,6aS)-hexahydrofuro[2,3-b]furan-3-yl)methyl)amino)-3-nitrophenyl)sulfonyl)benzamide] | 500 to 5000 nM
11 | < 20 nM | < 20 nM | O=C(NS(=O)(=O)c1ccc(NCCN2CC3CC2CO3)c([N+](=O)[O-])c1)c1ccc(N2CCN(C3CCCCc4c(Cl)cccc43)CC2)cc1Oc1cnc2[nH]ccc2c1 (stereo not drawn) [Compound 41, 2-((1H-pyrrolo[2,3-b]pyridin-5-yl)oxy)-N-((4-((2-(2-oxa-5-azabicyclo[2.2.1]heptan-5-yl)ethyl)amino)-3-nitrophenyl)sulfonyl)-4-(4-(1-chloro-6,7,8,9-tetrahydro-5H-benzo[7]annulen-5-yl)piperazin-1-yl)benzamide] | 50 to 500 nM
12 | < 20 nM | < 20 nM | NCCN1CCC2(CC1)CC(CNc1ccc(S(=O)(=O)NC(=O)c3ccc(N4CCN([C@@H]5CCCCc6c(Cl)cccc65)CC4)cc3Oc3cnc4[nH]ccc4c3)cc1[N+](=O)[O-])C2 [Compound 110, (R)-2-((1H-pyrrolo[2,3-b]pyridin-5-yl)oxy)-N-((4-(((7-(2-aminoethyl)-7-azaspiro[3.5]nonan-2-yl)methyl)amino)-3-nitrophenyl)sulfonyl)-4-(4-(1-chloro-6,7,8,9-tetrahydro-5H-benzo[7]annulen-5-yl)piperazin-1-yl)benzamide] | < 50 nM
13 | 20 to 200 nM | 20 to 200 nM | O=C(NS(=O)(=O)c1ccc(NCC2CC3(CCNCC3)C2)c([N+](=O)[O-])c1)c1ccc(N2CCN([C@@H]3CCCCc4c(Cl)cccc43)CC2)cc1 [Compound 117, (R)-N-((4-(((7-azaspiro[3.5]nonan-2-yl)methyl)amino)-3-nitrophenyl)sulfonyl)-4-(4-(1-chloro-6,7,8,9-tetrahydro-5H-benzo[7]annulen-5-yl)piperazin-1-yl)benzamide] | > 5000 nM
14 | < 20 nM | < 20 nM | O=C(O)CN1CCC2(CC1)CC(CNc1ccc(S(=O)(=O)NC(=O)c3ccc(N4CCN([C@@H]5CCCCc6c(Cl)cccc65)CC4)cc3Oc3cnc4[nH]ccc4c3)cc1[N+](=O)[O-])C2 [Compound 123, (R)-2-(2-(((4-(N-(2-((1H-pyrrolo[2,3-b]pyridin-5-yl)oxy)-4-(4-(1-chloro-6,7,8,9-tetrahydro-5H-benzo[7]annulen-5-yl)piperazin-1-yl)benzoyl)sulfamoyl)-2-nitrophenyl)amino)methyl)-7-azaspiro[3.5]nonan-7-yl)acetic acid] | 50 to 500 nM
15 | 20 to 200 nM | > 2000 nM | CCP(=O)(CC)c1cccc2c1CCCCC2N1CCN(c2ccc(C(=O)NS(=O)(=O)c3ccc(NCC4CCOCC4)c([N+](=O)[O-])c3)c(Oc3cnc4[nH]ccc4c3)c2)CC1 (stereo not drawn) [Compound 62, 2-((1H-pyrrolo[2,3-b]pyridin-5-yl)oxy)-4-(4-(1-(diethylphosphoryl)-6,7,8,9-tetrahydro-5H-benzo[7]annulen-5-yl)piperazin-1-yl)-N-((3-nitro-4-(((tetrahydro-2H-pyran-4-yl)methyl)amino)phenyl)sulfonyl)benzamide] | > 5000 nM
16 | < 20 nM | 20 to 200 nM | CCOC(=O)CN1CCC2(CC1)CC(CNc1ccc(S(=O)(=O)NC(=O)c3ccc(N4CCN([C@@H]5CCCCc6c(Cl)cccc65)CC4)cc3Oc3cnc4[nH]ccc4c3)cc1[N+](=O)[O-])C2 [Compound 122, ethyl (R)-2-(2-(((4-(N-(2-((1H-pyrrolo[2,3-b]pyridin-5-yl)oxy)-4-(4-(1-chloro-6,7,8,9-tetrahydro-5H-benzo[7]annulen-5-yl)piperazin-1-yl)benzoyl)sulfamoyl)-2-nitrophenyl)amino)methyl)-7-azaspiro[3.5]nonan-7-yl)acetate] | < 50 nM
